In paper PMC2635097 (Molecular pharmacology, 2008):
Values joined by “and” are separate entries in the source; they are usually repeats but may differ in a detail not shown here. Equal values may be shown once. One block for each molecule: values may come before it. Positions of bridges follow the written chain, without caps; N, C: chain ends. No end group written: not given here.

How the values were obtained:
[1] = molecular target: hKv1.5 (Homo sapiens, UniProt P22460); assay: Selectivity patch-clamp, Kv1.5 currents; format: cell-based
[2] = molecular target: hKCa3.1 (Homo sapiens, UniProt O15554); assay: Whole-cell patch-clamp of KCa3.1 currents; format: cell-based
[3] = molecular target: Nav1.2 (Mus musculus, UniProt B1AWN6); assay: Selectivity patch-clamp, Nav1.2 currents from N1E-115 cells; format: cell-based
[4] = molecular target: rKCa2.2 (Rattus norvegicus, UniProt P70604); assay: Whole-cell patch-clamp of KCa2.2 currents; format: cell-based
[5] = molecular target: T1, K2P2.1 (TREK-1) (Mus musculus, UniProt P97438); assay: Selectivity patch-clamp, endothelial cell TREK-1 currents; format: cell-based
T1 sequence (P97438 1-426): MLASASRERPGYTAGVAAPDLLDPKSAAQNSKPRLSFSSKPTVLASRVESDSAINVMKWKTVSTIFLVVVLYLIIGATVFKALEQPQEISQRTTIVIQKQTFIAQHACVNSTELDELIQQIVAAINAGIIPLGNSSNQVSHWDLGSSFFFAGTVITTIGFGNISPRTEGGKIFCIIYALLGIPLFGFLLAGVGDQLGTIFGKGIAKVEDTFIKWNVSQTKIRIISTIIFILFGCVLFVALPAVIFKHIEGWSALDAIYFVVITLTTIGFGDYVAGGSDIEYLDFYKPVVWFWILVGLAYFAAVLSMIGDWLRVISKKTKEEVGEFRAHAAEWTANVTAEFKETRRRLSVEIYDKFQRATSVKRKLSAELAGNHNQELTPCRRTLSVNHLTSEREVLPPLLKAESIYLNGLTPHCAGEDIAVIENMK

[6] = molecular target: mKv1.1 (Mus musculus, UniProt P16388); assay: Selectivity patch-clamp, Kv1.1 currents; format: cell-based
[7] = molecular target: Rat Kv3.2 (Rattus norvegicus, UniProt P22462); assay: Selectivity patch-clamp, Kv3.2 currents; format: cell-based
[8] = molecular target: T2, rKv4.2 (Rattus norvegicus, UniProt Q63881); assay: Selectivity patch-clamp, Kv4.2 currents; format: cell-based
T2 sequence (Q63881 1-630): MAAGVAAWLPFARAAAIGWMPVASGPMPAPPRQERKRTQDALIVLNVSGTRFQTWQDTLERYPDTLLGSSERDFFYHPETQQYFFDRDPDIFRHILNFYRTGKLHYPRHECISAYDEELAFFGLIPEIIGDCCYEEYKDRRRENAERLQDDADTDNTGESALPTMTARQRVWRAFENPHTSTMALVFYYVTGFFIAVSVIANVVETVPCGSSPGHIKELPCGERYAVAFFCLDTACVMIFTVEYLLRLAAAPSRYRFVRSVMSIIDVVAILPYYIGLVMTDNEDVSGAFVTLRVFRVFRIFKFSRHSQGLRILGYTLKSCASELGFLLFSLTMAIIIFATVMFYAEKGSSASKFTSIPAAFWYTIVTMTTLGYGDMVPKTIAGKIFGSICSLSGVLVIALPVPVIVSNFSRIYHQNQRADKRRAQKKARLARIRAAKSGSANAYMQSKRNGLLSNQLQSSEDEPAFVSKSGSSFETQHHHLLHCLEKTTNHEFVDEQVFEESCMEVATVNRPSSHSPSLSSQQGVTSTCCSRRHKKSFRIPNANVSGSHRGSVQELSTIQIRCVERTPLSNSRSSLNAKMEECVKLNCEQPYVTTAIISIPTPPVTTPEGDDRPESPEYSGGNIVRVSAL

[9] = molecular target: hKCa1.1 (Homo sapiens, UniProt Q12791); assay: Selectivity patch-clamp, KCa1.1 currents; format: cell-based; settings: 1 μM free Ca2+
[10] = molecular target: hKCa2.1 (Homo sapiens, UniProt Q92952); assay: Whole-cell patch-clamp of KCa2.1 currents; format: cell-based
[11] = molecular target: mKv3.1 (Mus musculus, UniProt P15388); assay: Selectivity patch-clamp, Kv3.1 currents; format: cell-based
[12] = molecular target: Rat Nav1.5 (Rattus norvegicus, UniProt P15389); assay: Selectivity patch-clamp, Nav1.5 currents; format: cell-based
[13] = logP; format: physicochemical
[14] = molecular target: hNav1.4 (Homo sapiens, UniProt P35499); assay: Selectivity patch-clamp, Nav1.4 currents; format: cell-based
[15] = molecular target: hKCa2.3 (Homo sapiens, UniProt Q9UGI6); assay: Whole-cell patch-clamp of KCa2.3 currents; format: cell-based
[16] = test system: mice; assay: Maximal electroshock; format: in vivo, mouse; settings: 100 mg/kg i.p., 15 min, 30 min and 1 hour
[17] = test system: mice; format: in vivo, mouse; settings: 100 mg/kg i.p., 15 min, 30 min and 1 hour
[18] = molecular target: Kv11.1 (HERG) (Homo sapiens, UniProt Q12809)
[19] = Plasma protein binding by ultrafiltration; format: in vitro ADME, rat
[20] = test system: Jurkat E61 and MEL cells; assay: Cytotoxicity assay; format: cell-based; settings: concentrations up to 100 μM; 48 h
[21] = test system: wt mice infused with Ang-II; assay: Telemetric blood pressure in angiotensin-II-induced hypertension; format: in vivo, mouse; settings: 30 mg/kg i.p.
[22] = Pharmacokinetics in rats; format: in vivo; settings: rat; for peak total plasma concentration: 2 h
[23] = test system: wt and KCa3.1−/− mice; assay: Telemetric blood pressure in normotensive mice; format: in vivo, mouse; settings: for MAP over 24 h: mean ± SEM; for lowering of mean arterial pressure (MAP): over 24 h
[24] = molecular target: glutamate site of NMDA receptors (Rattus norvegicus, UniProt Q00959); assay: NMDA receptor radioligand binding assay
[25] = test system: murine carotid artery; assay: Pressure myography, EDHF-type dilation of carotid artery; parameters: species or system mouse
[26] = molecular target: mKv1.3 (Mus musculus, UniProt P16390); assay: Selectivity patch-clamp, Kv1.3 currents; format: cell-based
[27] = molecular target: Cav1.2 (Oryctolagus cuniculus, UniProt P15381); assay: Selectivity patch-clamp, Cav1.2 currents; format: cell-based
[28] = male, Sprague-Dawley, plasma, iv, 10 mg/kg

Chain of hKCa3.1 (O15554 whole entry): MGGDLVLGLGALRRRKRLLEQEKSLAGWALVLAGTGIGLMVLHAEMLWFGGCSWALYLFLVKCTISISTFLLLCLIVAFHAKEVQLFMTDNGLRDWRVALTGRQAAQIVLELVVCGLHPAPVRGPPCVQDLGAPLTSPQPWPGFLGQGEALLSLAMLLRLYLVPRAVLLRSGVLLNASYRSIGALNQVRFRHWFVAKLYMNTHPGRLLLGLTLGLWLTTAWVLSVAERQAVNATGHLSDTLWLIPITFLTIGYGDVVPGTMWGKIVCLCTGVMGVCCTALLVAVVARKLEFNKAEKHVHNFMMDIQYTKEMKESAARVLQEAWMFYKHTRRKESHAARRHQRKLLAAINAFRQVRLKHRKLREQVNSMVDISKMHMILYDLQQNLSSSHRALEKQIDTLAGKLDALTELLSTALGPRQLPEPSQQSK
Chain of mKv1.1 (P16388 whole entry): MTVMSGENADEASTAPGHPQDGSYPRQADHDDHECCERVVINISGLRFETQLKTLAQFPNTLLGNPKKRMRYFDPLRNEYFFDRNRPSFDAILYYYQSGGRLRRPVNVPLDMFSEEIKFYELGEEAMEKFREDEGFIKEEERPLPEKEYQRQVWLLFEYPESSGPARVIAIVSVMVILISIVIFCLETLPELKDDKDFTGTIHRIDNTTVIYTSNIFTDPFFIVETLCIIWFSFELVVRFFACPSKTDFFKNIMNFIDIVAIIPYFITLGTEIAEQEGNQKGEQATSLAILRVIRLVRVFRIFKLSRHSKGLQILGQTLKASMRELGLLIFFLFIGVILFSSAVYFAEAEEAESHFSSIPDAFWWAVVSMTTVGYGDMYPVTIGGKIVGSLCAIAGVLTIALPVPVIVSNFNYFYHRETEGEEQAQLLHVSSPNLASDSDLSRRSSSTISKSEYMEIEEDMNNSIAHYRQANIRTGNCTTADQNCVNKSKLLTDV
Chain of hKCa1.1 (Q12791 whole entry): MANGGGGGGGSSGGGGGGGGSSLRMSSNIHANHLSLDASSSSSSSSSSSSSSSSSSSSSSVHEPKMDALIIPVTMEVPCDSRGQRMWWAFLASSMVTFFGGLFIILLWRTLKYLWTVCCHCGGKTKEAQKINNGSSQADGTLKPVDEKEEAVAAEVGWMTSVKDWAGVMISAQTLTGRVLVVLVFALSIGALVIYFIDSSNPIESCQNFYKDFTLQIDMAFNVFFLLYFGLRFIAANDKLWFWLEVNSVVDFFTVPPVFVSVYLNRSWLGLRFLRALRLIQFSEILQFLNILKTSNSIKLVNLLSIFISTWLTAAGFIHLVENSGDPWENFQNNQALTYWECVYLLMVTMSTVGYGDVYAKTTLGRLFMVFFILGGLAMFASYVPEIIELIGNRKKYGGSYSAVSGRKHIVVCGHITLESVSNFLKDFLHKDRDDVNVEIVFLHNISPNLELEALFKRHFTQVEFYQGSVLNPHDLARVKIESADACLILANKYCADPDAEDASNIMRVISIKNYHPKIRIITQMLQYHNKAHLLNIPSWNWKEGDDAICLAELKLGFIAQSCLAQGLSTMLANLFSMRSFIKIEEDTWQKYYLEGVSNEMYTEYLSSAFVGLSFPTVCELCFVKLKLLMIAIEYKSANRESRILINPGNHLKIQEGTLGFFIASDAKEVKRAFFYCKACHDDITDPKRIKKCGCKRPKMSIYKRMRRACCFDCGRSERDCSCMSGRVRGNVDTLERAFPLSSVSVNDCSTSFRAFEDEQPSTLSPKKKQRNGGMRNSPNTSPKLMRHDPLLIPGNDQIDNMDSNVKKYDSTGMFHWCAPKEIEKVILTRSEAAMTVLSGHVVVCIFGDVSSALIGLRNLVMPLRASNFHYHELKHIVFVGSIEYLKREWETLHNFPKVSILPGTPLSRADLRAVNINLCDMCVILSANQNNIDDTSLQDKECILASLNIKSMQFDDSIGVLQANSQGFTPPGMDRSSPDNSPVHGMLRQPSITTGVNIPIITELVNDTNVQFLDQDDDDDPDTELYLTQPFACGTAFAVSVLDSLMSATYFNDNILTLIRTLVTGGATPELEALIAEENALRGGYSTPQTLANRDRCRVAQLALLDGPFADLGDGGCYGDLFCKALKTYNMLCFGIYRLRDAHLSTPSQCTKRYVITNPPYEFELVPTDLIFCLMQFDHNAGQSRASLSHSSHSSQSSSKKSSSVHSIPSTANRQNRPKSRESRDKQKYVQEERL
Chain of rKCa2.2 (P70604 whole entry): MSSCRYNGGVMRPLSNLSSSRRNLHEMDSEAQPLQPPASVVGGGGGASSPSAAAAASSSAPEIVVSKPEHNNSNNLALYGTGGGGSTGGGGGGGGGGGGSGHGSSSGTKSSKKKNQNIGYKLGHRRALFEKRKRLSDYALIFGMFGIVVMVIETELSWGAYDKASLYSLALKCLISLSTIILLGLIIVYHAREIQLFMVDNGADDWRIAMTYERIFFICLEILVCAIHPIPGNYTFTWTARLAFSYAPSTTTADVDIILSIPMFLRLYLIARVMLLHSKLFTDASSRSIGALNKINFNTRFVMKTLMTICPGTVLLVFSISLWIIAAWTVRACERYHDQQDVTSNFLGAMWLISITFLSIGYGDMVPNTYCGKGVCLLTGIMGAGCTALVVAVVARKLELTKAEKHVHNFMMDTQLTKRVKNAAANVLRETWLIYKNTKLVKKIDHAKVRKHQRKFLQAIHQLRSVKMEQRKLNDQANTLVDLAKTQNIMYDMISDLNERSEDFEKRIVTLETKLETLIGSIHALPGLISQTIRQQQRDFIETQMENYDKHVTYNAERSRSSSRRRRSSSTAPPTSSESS
Chain of mKv3.1 (P15388 whole entry): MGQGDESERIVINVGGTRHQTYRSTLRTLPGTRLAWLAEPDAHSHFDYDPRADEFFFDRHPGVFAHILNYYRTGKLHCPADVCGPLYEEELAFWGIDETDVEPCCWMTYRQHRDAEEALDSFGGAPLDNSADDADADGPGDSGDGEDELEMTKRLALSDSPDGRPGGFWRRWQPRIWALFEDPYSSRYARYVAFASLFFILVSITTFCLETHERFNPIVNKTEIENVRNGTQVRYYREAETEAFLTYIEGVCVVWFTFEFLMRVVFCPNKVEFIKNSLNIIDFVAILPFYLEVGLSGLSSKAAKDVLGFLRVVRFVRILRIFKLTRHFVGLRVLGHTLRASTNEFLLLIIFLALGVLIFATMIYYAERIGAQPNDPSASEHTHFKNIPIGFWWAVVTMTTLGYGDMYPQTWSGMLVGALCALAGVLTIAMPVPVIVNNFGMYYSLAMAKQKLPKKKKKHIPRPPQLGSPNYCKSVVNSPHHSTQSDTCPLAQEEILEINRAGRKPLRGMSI
Chain of hKCa2.1 (Q92952 whole entry): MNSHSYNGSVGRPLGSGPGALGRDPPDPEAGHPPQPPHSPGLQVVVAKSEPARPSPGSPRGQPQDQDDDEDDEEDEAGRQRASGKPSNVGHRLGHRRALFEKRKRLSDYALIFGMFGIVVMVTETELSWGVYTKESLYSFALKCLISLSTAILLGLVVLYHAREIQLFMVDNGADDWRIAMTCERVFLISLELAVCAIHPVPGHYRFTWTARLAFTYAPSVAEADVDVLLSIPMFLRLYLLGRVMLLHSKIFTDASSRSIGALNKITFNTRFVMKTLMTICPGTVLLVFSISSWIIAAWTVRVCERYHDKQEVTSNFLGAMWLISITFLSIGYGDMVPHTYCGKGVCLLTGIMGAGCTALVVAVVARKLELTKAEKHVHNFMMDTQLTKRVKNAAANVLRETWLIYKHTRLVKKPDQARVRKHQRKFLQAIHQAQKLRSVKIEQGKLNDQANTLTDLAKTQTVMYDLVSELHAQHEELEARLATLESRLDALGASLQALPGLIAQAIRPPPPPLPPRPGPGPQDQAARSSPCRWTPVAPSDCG
Chain of hKCa2.3 (Q9UGI6 whole entry): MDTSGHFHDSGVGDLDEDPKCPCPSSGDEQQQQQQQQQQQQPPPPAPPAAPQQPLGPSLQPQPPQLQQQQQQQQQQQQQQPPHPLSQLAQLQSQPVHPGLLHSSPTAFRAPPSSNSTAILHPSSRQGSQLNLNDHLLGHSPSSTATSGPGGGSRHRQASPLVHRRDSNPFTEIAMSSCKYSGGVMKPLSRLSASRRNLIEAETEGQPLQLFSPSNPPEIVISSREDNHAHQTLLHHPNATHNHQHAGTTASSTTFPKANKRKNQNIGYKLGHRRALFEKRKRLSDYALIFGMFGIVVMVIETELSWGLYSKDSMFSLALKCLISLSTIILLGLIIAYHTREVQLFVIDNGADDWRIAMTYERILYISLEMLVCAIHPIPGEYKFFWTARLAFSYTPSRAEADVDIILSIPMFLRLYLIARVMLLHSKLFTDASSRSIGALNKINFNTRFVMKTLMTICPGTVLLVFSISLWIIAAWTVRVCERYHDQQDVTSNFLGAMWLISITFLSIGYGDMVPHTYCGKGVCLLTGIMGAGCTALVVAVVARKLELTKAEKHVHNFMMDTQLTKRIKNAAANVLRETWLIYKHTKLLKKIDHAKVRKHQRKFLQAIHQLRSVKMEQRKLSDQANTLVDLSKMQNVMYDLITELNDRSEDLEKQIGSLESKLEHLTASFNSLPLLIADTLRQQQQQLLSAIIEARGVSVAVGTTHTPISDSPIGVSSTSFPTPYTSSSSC
Chain of mKv1.3 (P16390 whole entry): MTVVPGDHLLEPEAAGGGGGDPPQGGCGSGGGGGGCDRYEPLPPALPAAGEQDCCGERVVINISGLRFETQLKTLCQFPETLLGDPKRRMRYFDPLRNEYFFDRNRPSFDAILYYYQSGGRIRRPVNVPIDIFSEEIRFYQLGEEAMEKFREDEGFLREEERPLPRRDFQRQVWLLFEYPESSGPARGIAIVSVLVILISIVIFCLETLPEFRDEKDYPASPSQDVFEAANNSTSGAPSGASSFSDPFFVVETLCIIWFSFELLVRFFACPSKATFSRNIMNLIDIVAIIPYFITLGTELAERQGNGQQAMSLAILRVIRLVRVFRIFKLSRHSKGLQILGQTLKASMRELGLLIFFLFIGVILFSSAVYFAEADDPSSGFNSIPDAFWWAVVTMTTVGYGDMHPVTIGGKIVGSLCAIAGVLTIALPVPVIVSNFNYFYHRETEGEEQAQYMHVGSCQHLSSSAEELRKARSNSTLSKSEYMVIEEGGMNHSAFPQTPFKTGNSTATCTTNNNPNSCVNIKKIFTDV

IC50 [1]: 95 ± 5 µM
EC50 [2]: 1.9 µM
increase of KCa3.1 currents ([2]; 250 nM [Ca2+]i): ~30 fold
increase of KCa3.1 currents ([2]; 1 μM [Ca2+]i): roughly 3 fold
IC50 [3]: 15 ± 3 µM
EC50 [4]: 12.8 µM
EC50 [5]: 110 ± 35 µM
IC50 [6]: 92 ± 7 µM
IC50 [7]: 100 ± 10 µM
IC50 [8]: 130 ± 10 µM
effect on KCa1.1 current at 100 μM ([9]; 100 μM): Doubles current at 100 μM
EC50 [10]: 21 µM
IC50 [11]: 95 ± 5 µM
Molecule: Nc1nc2ccc(OC(F)(F)F)cc2s1 [Riluzole, 2-amino-6-[trifluoromethoxy]benzothiazole, reference compound]

EC50 [2]: 0.115 µM
logP [13]: 3.1
IC50 [3]: 14 ± 2 µM
Nav1.4 block at 10 μM ([14]; 10 μM): No effect at 10 μM
EC50 [4]: 1.9 µM
K2P2.1 (TREK-1) effect at 10 μM ([5]; 10 μM): No effect at 10 μM
Kv1.1 block at 10 μM ([6]; 10 μM): 12 ± 3%block at 10 μM
Kv3.2 block at 10 μM ([7]; 10 μM): 12 ± 5% block at 10 μM
EC50 ([15]; read-out: EC50 KCa2.3 activation, 250 nM [Ca2+]i): 1.2 µM
Kv4.2 block at 10 μM ([8]; 10 μM): 10 ± 3% block at 10 μM
effect on KCa1.1 current at 10 μM ([9]; 10 μM): No effect at 10 μM
EC50 [10]: 0.43 µM
Kv3.1 block at 10 μM ([11]; 10 μM): 35 ± 3% block at 10 μM
Molecule: Nc1nc2ccc3cc4ccccc4cc3c2s1 [SKA-20, Anthra[2,1-d]thiazol-2-ylamine]
Nav1.5 block at 10 μM [12]: 30 ± 5% block at 10 μM

Molecule: Nc1nc2cc3c(cc2s1)CCC3 [SKA-29, 6,7-Dihydro-5H-indeno[5,6-d]thiazol-2-amine]
protection from seizures, maximal electroshock (MES) model [16]: effectively protect mice from seizures
protection from seizures, 6 Hz minimal electroshock model [17]: effectively protect mice from seizures

Kv1.5 block at 25 μM ([1]; 25 μM): 20 ± 5% block at 25 μM
unbound (free) fraction ([19]; rat plasma spiked with 10 μM): 61 ± 1.7% and 61%
fraction unbound at 15 min, 10 μM ([19]; rat, plasma): 0.61
logP [13]: 2.2
Nav1.4 block at 25 μM ([14]; 25 μM): 20 ± 5 % block at 25 μM
K2P2.1 (TREK-1) effect at 25 μM ([5]; 25 μM): No effect at 25 μM
Kv1.1 block at 25 μM ([6]; 25 μM): No effect at 25 μM
Tmax ([22]; male, Sprague-Dawley, plasma, ip, 30 mg/kg): 2 h
concentration at 1 h [22, 28]: 5000 nM
concentration at 24 h [22, 28]: 2500 nM
concentration at 48 h [22, 28]: 2000 nM
concentration at 80 h [22, 28]: 2000 nM
peak total plasma concentration ([22]; i.p. 10 mg/kg): 25 µM
plasma concentrations higher than tissue concentrations ([22]; i.p. 10 mg/kg, 2 h (plasma peak)): 4–8 fold
peak total plasma concentration ([22]; i.p. 30 mg/kg): 37 µM
total plasma concentration, peak at 3 min ([22]; i.v. 10 mg/kg, 3 min): 30 µM
Kv4.2 block at 25 μM ([8]; 25 μM): No effect at 25 μM
effect in NMDA receptor binding assay at 25 μM [24]: no effect
Kv1.3 block at 25 μM [26]: 20 ± 5% block at 25 μM
effect on KCa1.1 current at 25 μM ([9]; 25 μM): No effect at 25 μM
Molecule: Nc1nc2c(ccc3ccccc32)s1 [SKA-31, naphtho[1,2-d]thiazol-2-ylamine]
Kv11.1 (HERG) block at 25 μM [18]: No effect at 25 μM
cytotoxicity [20]: not cytotoxic
protection from seizures, maximal electroshock (MES) model [16]: effectively protect mice from seizures
MAP ([21]; Ang-II hypertensive wt mice, mean ± SEM): 120 ± 4 mmHg
lowering of mean arterial pressure (MAP) ([21]; angiotensin-II-induced hypertension, wt mice): 12 mmHg
protection from seizures, 6 Hz minimal electroshock model [17]: effectively protect mice from seizures
MAP over 24 h ([23]; KCa3.1−/− mice, 10 mg/kg i.p.): 104.3 ± 1.5 mmHg
MAP over 24 h ([23]; KCa3.1−/− mice, 30 mg/kg i.p.): 102.9 ± 0.6 mmHg
effect on mean arterial pressure (MAP) ([23]; KCa3.1−/− mice, 10 and 30 mg/kg i.p.): no blood pressure lowering effects
effect on heart rate ([23]; any of the groups): did not alter heart rate
effect on mean arterial pressure (MAP) ([23]; normotensive wt mice, 1 mg/kg i.p.): ineffective
lowering of mean arterial pressure (MAP) ([23]; normotensive wt mice, 10 mg/kg i.p.): 4 mmHg
lowering of mean arterial pressure (MAP) ([23]; normotensive wt mice, 30 mg/kg i.p.): 6 mmHg
MAP over 24 h ([23]; wt mice, 1 mg/kg i.p.): 99.0 ± 2.0 mmHg
MAP over 24 h ([23]; wt mice, 10 mg/kg i.p.): 95.8 ± 1.3 mmHg
MAP over 24 h ([23]; wt mice, 30 mg/kg i.p.): 94.1 ± 1.3 mmHg
effect on carotid artery diameter in the absence of acetylcholine ([25]; 0.01 to 1 μM): did not dilate or contract
potentiation of residual KCa2.3-mediated EDHF-type response ([25]; carotid arteries of KCa3.1−/− mice, 0.1 to 1 μM): did not potentiate
increase in EDHF-type dilation at 1 μM ([25]; wt carotid artery, 100 nM acetylcholine, 1 μM): two- to three-fold increase in dilation
Cav1.2 block at 25 μM [27]: No effect at 25 μM

Molecule: apamin (CNCKAPETALCARRCQQH-NH2; disulfide 1-11, 3-15; ends not checked; UniProt P01500 28-45, looked up)
IC50 ([15]; read-out: IC50 blockade of hKCa2.3 currents, currents activated with 10 μM SKA-31, 250 nM free Ca2+): ~0.001 µM
